Results: publication PMC2990605 (British Journal of Cancer, 2010)
“Also recorded” adds a separate entry of the source.

Test: Adverse events (CTCAEv3.0), worst grade per patient regardless of relation, and laboratory parameters
Type: in vivo
Procedure: Toxicity was evaluated according to common toxicity criteria for adverse events (CTCAEv3.0). The MTD was defined as the dose level(s) at which at least two out of six patients developed DLT.
Toxicity assessment, haematology and clinical biochemistry were performed at baseline and weekly during the study. Physical and ECOG performance status were recorded at baseline and before the next cycle.

Question: Which “Nausea, CTCAE grade 4, patients” value (human, in vivo, 21 days) does the source give for CC(C)C[C@@H](C(=O)N[C@H](C(=O)OC1CCCC1)c1ccccc1)[C@H](O)C(=O)NO [tosedostat] here?
Answer: 0

Question: And the “Nausea, patients with events, %” value (human, in vivo, 21 days)?
Answer: 23%

Question: And the “Neutropenia, CTCAE grade 1, patients” value (human, in vivo, 21 days)?
Answer: 0

Question: And the “Neutropenia, CTCAE grade 2, patients” value (human, in vivo, 21 days)?
Answer: 1

Question: What about the “Neutropenia, CTCAE grade 3, patients” value (human, in vivo, 21 days) of the same molecule?
Answer: 2

Question: What about the “Neutropenia, CTCAE grade 4, patients” value (human, in vivo, 21 days) of the same molecule?
Answer: 3

Question: What about the “Neutropenia, patients with events, %” value (human, in vivo, 21 days) of the same molecule?
Answer: 27%

Question: And the “Oedema peripheral, CTCAE grade 1, patients” value (human, in vivo, 21 days)?
Answer: 4

Question: And the “Oedema peripheral, CTCAE grade 2, patients” value (human, in vivo, 21 days)?
Answer: 1

Question: What about the “Oedema peripheral, CTCAE grade 3, patients” value (human, in vivo, 21 days) of the same molecule?
Answer: 0

Question: What about the “Oedema peripheral, CTCAE grade 4, patients” value (human, in vivo, 21 days) of the same molecule?
Answer: 0

Question: And the “Oedema peripheral, patients with events, %” value (human, in vivo, 21 days)?
Answer: 23%

Question: And the “Oedema, CTCAE grade 1, patients” value (human, in vivo, 21 days)?
Answer: 3

Question: And the “Oedema, CTCAE grade 2, patients” value (human, in vivo, 21 days)?
Answer: 0

Question: What about the “Oedema, CTCAE grade 3, patients” value (human, in vivo, 21 days) of the same molecule?
Answer: 0

Question: What about the “Oedema, CTCAE grade 4, patients” value (human, in vivo, 21 days) of the same molecule?
Answer: 0

Question: And the “Oedema, patients with events, %” value (human, in vivo, 21 days)?
Answer: 14%

Question: What about the “Peripheral sensory neuropathy, CTCAE grade 1, patients” value (human, in vivo, 21 days) of the same molecule?
Answer: 4

Question: And the “Peripheral sensory neuropathy, CTCAE grade 2, patients” value (human, in vivo, 21 days)?
Answer: 3

Question: What about the “Peripheral sensory neuropathy, CTCAE grade 3, patients” value (human, in vivo, 21 days) of the same molecule?
Answer: 0

Question: And the “Peripheral sensory neuropathy, CTCAE grade 4, patients” value (human, in vivo, 21 days)?
Answer: 0

Question: What about the “Peripheral sensory neuropathy, patients with events, %” value (human, in vivo, 21 days) of the same molecule?
Answer: 32%

Question: And the “Pollakiuria, CTCAE grade 1, patients” value (human, in vivo, 21 days)?
Answer: 0

Question: And the “Pollakiuria, CTCAE grade 2, patients” value (human, in vivo, 21 days)?
Answer: 0

Question: And the “Pollakiuria, CTCAE grade 3, patients” value (human, in vivo, 21 days)?
Answer: 0

Question: What about the “Pollakiuria, CTCAE grade 4, patients” value (human, in vivo, 21 days) of the same molecule?
Answer: 0

Question: What about the “Pollakiuria, patients with events, %” value (human, in vivo, 21 days) of the same molecule?
Answer: 0%

Question: And the “Pruritus, CTCAE grade 1, patients” value (human, in vivo, 21 days)?
Answer: 3

Question: And the “Pruritus, CTCAE grade 2, patients” value (human, in vivo, 21 days)?
Answer: 0

Question: And the “Pruritus, CTCAE grade 3, patients” value (human, in vivo, 21 days)?
Answer: 1

Question: What about the “Pruritus, CTCAE grade 4, patients” value (human, in vivo, 21 days) of the same molecule?
Answer: 0

Question: What about the “Pruritus, patients with events, %” value (human, in vivo, 21 days) of the same molecule?
Answer: 18%

Question: What about the “Pyrexia, CTCAE grade 1, patients” value (human, in vivo, 21 days) of the same molecule?
Answer: 1

Question: What about the “Pyrexia, CTCAE grade 2, patients” value (human, in vivo, 21 days) of the same molecule?
Answer: 1

Question: What about the “Pyrexia, CTCAE grade 3, patients” value (human, in vivo, 21 days) of the same molecule?
Answer: 0

Question: And the “Pyrexia, CTCAE grade 4, patients” value (human, in vivo, 21 days)?
Answer: 0

Question: And the “Pyrexia, patients with events, %” value (human, in vivo, 21 days)?
Answer: 9%

Question: What about the “Rash, CTCAE grade 1, patients” value (human, in vivo, 21 days) of the same molecule?
Answer: 3

Question: What about the “Rash, CTCAE grade 2, patients” value (human, in vivo, 21 days) of the same molecule?
Answer: 1

Question: What about the “Rash, CTCAE grade 3, patients” value (human, in vivo, 21 days) of the same molecule?
Answer: 1

Question: And the “Rash, CTCAE grade 4, patients” value (human, in vivo, 21 days)?
Answer: 0

Question: What about the “Rash, patients with events, %” value (human, in vivo, 21 days) of the same molecule?
Answer: 23%

Question: What about the “Spinal cord compression, CTCAE grade 1, patients” value (human, in vivo, 21 days) of the same molecule?
Answer: 0

Question: And the “Spinal cord compression, CTCAE grade 2, patients” value (human, in vivo, 21 days)?
Answer: 0

Question: And the “Spinal cord compression, CTCAE grade 3, patients” value (human, in vivo, 21 days)?
Answer: 0

Question: What about the “Spinal cord compression, CTCAE grade 4, patients” value (human, in vivo, 21 days) of the same molecule?
Answer: 0

Question: What about the “Spinal cord compression, patients with events, %” value (human, in vivo, 21 days) of the same molecule?
Answer: 0%

Question: And the “Tumour pain, CTCAE grade 1, patients” value (human, in vivo, 21 days)?
Answer: 0

Question: What about the “Tumour pain, CTCAE grade 2, patients” value (human, in vivo, 21 days) of the same molecule?
Answer: 0

Question: And the “Tumour pain, CTCAE grade 3, patients” value (human, in vivo, 21 days)?
Answer: 1

Question: And the “Tumour pain, CTCAE grade 4, patients” value (human, in vivo, 21 days)?
Answer: 0

Question: And the “Tumour pain, patients with events, %” value (human, in vivo, 21 days)?
Answer: 5%

Question: And the “Urinary tract infection, CTCAE grade 1, patients” value (human, in vivo, 21 days)?
Answer: 0

Question: What about the “Urinary tract infection, CTCAE grade 2, patients” value (human, in vivo, 21 days) of the same molecule?
Answer: 0

Question: What about the “Urinary tract infection, CTCAE grade 3, patients” value (human, in vivo, 21 days) of the same molecule?
Answer: 1

Question: What about the “Urinary tract infection, CTCAE grade 4, patients” value (human, in vivo, 21 days) of the same molecule?
Answer: 0

Question: And the “Urinary tract infection, patients with events, %” value (human, in vivo, 21 days)?
Answer: 5%

Question: What about the “Vomiting, CTCAE grade 1, patients” value (human, in vivo, 21 days) of the same molecule?
Answer: 3

Question: What about the “Vomiting, CTCAE grade 2, patients” value (human, in vivo, 21 days) of the same molecule?
Answer: 1

Question: And the “Vomiting, CTCAE grade 3, patients” value (human, in vivo, 21 days)?
Answer: 0

Question: What about the “Vomiting, CTCAE grade 4, patients” value (human, in vivo, 21 days) of the same molecule?
Answer: 0

Question: What about the “Vomiting, patients with events, %” value (human, in vivo, 21 days) of the same molecule?
Answer: 18%

Question: And the “γ-glutamyltransferase increased, CTCAE grade 1, patients” value (human, in vivo, 21 days)?
Answer: 0

Question: What about the “γ-glutamyltransferase increased, CTCAE grade 2, patients” value (human, in vivo, 21 days) of the same molecule?
Answer: 0

Question: What about the “γ-glutamyltransferase increased, CTCAE grade 3, patients” value (human, in vivo, 21 days) of the same molecule?
Answer: 1

Question: What about the “γ-glutamyltransferase increased, CTCAE grade 4, patients” value (human, in vivo, 21 days) of the same molecule?
Answer: 0

Question: What about the “γ-glutamyltransferase increased, patients with events, %” value (human, in vivo, 21 days) of the same molecule?
Answer: 5%

Question: What about the “death on study, cause” value (one patient, cohort 5, 6 days after third paclitaxel infusion, 2 days after last tosedostat dose) of the same molecule?
Answer: eosinophilic myocarditis, possibly related to study medication; also recorded: eosinophilic myocarditis, considered possibly related to paclitaxel, tosedostat or other medications
